Measurements: the supplement of paper PMC10627819

Experiments:
[1] = system: S. pneumoniae D39V; assay: Bliss interaction score (quartile over a dose matrix) (fitness difference); higher = more antagonism (negative = synergy)
Summary of the method: (§1)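 Fitness is OD595 at stationary-phase entry relative to the plate's robust no-drug mean, capped at 1. Single-drug fitness was inferred from combinations. The Bliss score is observed minus product-expected fitness, summarised by quartiles over technical, biological and donor/recipient replicates.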

[2] = system: S. aureus Newman; assay: as above
Summary of the method: as §1

[3] = system: S. aureus DSM 20231; assay: as above
Summary of the method: as §1

[4] = system: B. subtilis 168; assay: as above
Summary of the method: as §1

[5] = system: S. pneumoniae D39V; assay: fitness (endpoint OD595 vs no drug) (fraction); higher = more growth
Summary of the method: (§2)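 At 37 °C, bacteria in TSB, LB Lennox or CY were grown in 384-well plates from a starting OD595 of 0.01. OD595 was measured every 30 min for 14 h, with the first reading used as background. Fitness is the optical density at the switch to stationary phase as a fraction of the robust mean of no-drug control wells, capped at 1.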

[6] = system: S. aureus Newman; assay: as above
Summary of the method: as §2
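Throughout, for Bliss interaction score (quartile over a dose matrix): first quartile when negative (synergy) and third quartile when positive (antagonism).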

C/C(=C\C(=O)OCCCCCCCCC(=O)O)C[C@@H]1OC[C@H](C[C@@H]2O[C@H]2[C@@H](C)[C@H](C)O)[C@@H](O)[C@H]1O [Pseudomonic acid] + CN[C@@H]1[C@H](O[C@H]2[C@H](O[C@H]3[C@H](O)[C@@H](O)[C@H](N=C(N)N)[C@@H](O)[C@@H]3N=C(N)N)O[C@@H](C)[C@]2(O)C=O)O[C@@H](CO)[C@H](O)[C@H]1O [Streptomycin]
Conditions | Bliss interaction score
[1] | -0.178
[2] | -0.0275
[3] | -0.013
[4] | 0.0523

fitness, [5]
Conditions | first compound 0.03 µg/mL | first compound 0.06 µg/mL | first compound 0.12 µg/mL
partner 2 µg/mL | 0.897 | 0.719 | 0.52
partner 4 µg/mL | 0.903 | 0.708 | 0.491
partner 8 µg/mL | 0.699 | 0.565 | 0.384

fitness, one replicate
Conditions | first compound 0.03 µg/mL | first compound 0.0313 µg/mL | first compound 0.06 µg/mL | first compound 0.0625 µg/mL | first compound 0.12 µg/mL | first compound 0.125 µg/mL
[5], partner 16 µg/mL | 0.545 | – | 0.439 | – | 0.238 | –
[6], partner 2 µg/mL | – | 0.0148 | – | 0.0368 | – | 0.0312
[6], partner 4 µg/mL | – | 0.0183 | – | 0.0224 | – | 0.0173
[6], partner 8 µg/mL | – | 0.0145 | – | 0.0198 | – | 0.0269

C/C(=C\C(=O)OCCCCCCCCC(=O)O)C[C@@H]1OC[C@H](C[C@@H]2O[C@H]2[C@@H](C)[C@H](C)O)[C@@H](O)[C@H]1O [Pseudomonic acid] + CC1=C\[C@@H](O)CC(=O)Cc2nc(co2)C(=O)N2CCC=C2C(=O)O[C@H](C(C)C)[C@H](C)/C=C/C(=O)NC\C=C\1 [Virginiamycin M1]
Conditions | Bliss interaction score
[1] | 0.106
[2] | -0.0218
[3] | -0.0077
[4] | -0.0497

fitness, one replicate
Conditions | first compound 0.03 µg/mL | first compound 0.0313 µg/mL | first compound 0.06 µg/mL | first compound 0.0625 µg/mL | first compound 0.12 µg/mL | first compound 0.125 µg/mL
[5], partner 0.15 µg/mL | ≥ 1 | – | ≥ 1 | – | 0.866 | –
[5], partner 0.3 µg/mL | ≥ 1 | – | ≥ 1 | – | 0.865 | –
[6], partner 0.0625 µg/mL | – | 0.0328 | – | 0.0216 | – | 0.0353
[6], partner 0.125 µg/mL | – | 0.0308 | – | 0.0347 | – | 0.0594
[6], partner 0.25 µg/mL | – | 0.0405 | – | 0.0352 | – | 0.0492

fitness, [5]
Conditions | first compound 0.03 µg/mL | first compound 0.06 µg/mL | first compound 0.12 µg/mL
partner 0.5 µg/mL | 0.924 | 0.856 | 0.629
partner 1 µg/mL | 0.914 | 0.798 | 0.63
partner 2 µg/mL | 0.952 | 0.844 | 0.647

O=C(N[C@H](CO)[C@H](O)c1ccc([N+](=O)[O-])cc1)C(Cl)Cl [Chloramphenicol] + CN(C)c1cc(NC(=O)CNC(C)(C)C)c(O)c2c1C[C@H]1C[C@H]3[C@H](N(C)C)C(O)=C(C(N)=O)C(=O)[C@@]3(O)C(O)=C1C2=O [Tigecycline]
Conditions | Bliss interaction score
[1] | -0.114
[2] | -0.0583
[3] | -0.0788
[4] | -0.0487

fitness, [6]
Conditions | first compound 0.75 µg/mL | first compound 1.5 µg/mL | first compound 3 µg/mL
partner 0.039 µg/mL | 0.789 | 0.509 | 0.216
partner 0.078 µg/mL | 0.831 | 0.559 | 0.2
partner 0.156 µg/mL | 0.829 | 0.58 | 0.213

C/C(=C\C(=O)OCCCCCCCCC(=O)O)C[C@@H]1OC[C@H](C[C@@H]2O[C@H]2[C@@H](C)[C@H](C)O)[C@@H](O)[C@H]1O [Pseudomonic acid] + CN(C)c1cc(NC(=O)CNC(C)(C)C)c(O)c2c1C[C@H]1C[C@H]3[C@H](N(C)C)C(O)=C(C(N)=O)C(=O)[C@@]3(O)C(O)=C1C2=O [Tigecycline]
Conditions | Bliss interaction score
[1] | -0.124
[2] | -0.0182
[3] | 0.006
[4] | 0.07

fitness, [5]
Conditions | first compound 0.03 µg/mL | first compound 0.06 µg/mL | first compound 0.12 µg/mL
partner 0.65 µg/mL | 0.872 | 0.739 | 0.575
partner 1.3 µg/mL | 0.923 | 0.747 | 0.612
partner 2.6 µg/mL | 0.879 | 0.752 | 0.59

fitness, [6], one replicate
Conditions | first compound 0.0313 µg/mL | first compound 0.0625 µg/mL | first compound 0.125 µg/mL
partner 0.039 µg/mL | 0.0303 | 0.0332 | 0.029
partner 0.078 µg/mL | 0.0326 | 0.0257 | 0.0238
partner 0.156 µg/mL | 0.0698 | 0.0522 | 0.0728

C/C(=C\C(=O)OCCCCCCCCC(=O)O)C[C@@H]1OC[C@H](C[C@@H]2O[C@H]2[C@@H](C)[C@H](C)O)[C@@H](O)[C@H]1O [Pseudomonic acid] + CCCCCCCCCC(=O)N[C@@H]1[C@H]([C@@H]([C@H](O[C@H]1OC2=C3C=C4C=C2OC5=C(C=C(C=C5)[C@H]([C@H]6C(=O)N[C@@H](C7=C(C(=CC(=C7)O)OC8[C@H]([C@H]([C@@H]([C@H](O8)CO)O)O)O)C9=C(C=CC(=C9)[C@H](C(=O)N6)NC(=O)[C@@H]4NC(=O)[C@@H]1C2=CC(=CC(=C2)OC2=C(C=CC(=C2)[C@H](C(=O)N[C@H](CC2=CC(=C(O3)C=C2)Cl)C(=O)N1)N)O)O)O)C(=O)O)O[C@H]1[C@@H]([C@H]([C@@H]([C@H](O1)CO)O)O)NC(=O)C)Cl)CO)O)O [Teicoplanin]
main component drawn
Conditions | Bliss interaction score
[1] | 0.0843
[2] | -0.0375
[3] | -0.0304
[4] | 0.116

fitness, [6], one replicate, main component drawn
Conditions | first compound 0.0313 µg/mL | first compound 0.0625 µg/mL | first compound 0.125 µg/mL
partner 0.1562 µg/mL | 0.0547 | 0.0391 | 0.0327
partner 0.3125 µg/mL | 0.0341 | 0.0111 | 0.005
partner 0.625 µg/mL | 0.0079 | 0.0049 | 0.0139
